From patent US4239744A, “Radioreceptor assay for benzodiazepines in plasma and other biological specimens” (United States of America, priority 1978, dated 1980)

Tested on: binding sites for [^3 H] diazepam (benzodiazepine receptor), rat cerebral cortex synaptosomal membranes
Assay: Radioreceptor assay: inhibition of [3H]diazepam binding to rat synaptosomal membranes by drugs dissolved in plasma
Details: for plasma concentration that could be reliably measured by inhibition of [3H]diazepam binding: benzodiazepine dissolved in plasma, assayed in triplicate, from standard curve in figure; for potency rank among the benzodiazepines tested in inhibiting [3H]diazepam binding: four benzodiazepines: clonazepam, N-demethyldiazepam, flurazepam
Procedure: Blood samples to be assayed are drawn into heparinized tubes and the plasma then separated therefrom by centrifugation at […]. Two-hundred μl of plasma is then pipetted into microtubes, e.g., Eppendorf Microtubes (Brinkman Instruments, Westbury, N.Y.) and diluted 1:10 with water. Samples are mixed by inversion and the plasma precipitated with 50 μl of perchloric acid. The samples are then vortexed briefly and centrifuged in a microcentrifuge, e.g., an Eppendorf Microfuge (Brinkman Instruments, Westbury, N.Y.), for three minutes. Twenty-five μl of the clear supernatant is withdrawn and added to 375 μl of distilled water in 16×125 mm glass tubes. Assays are thereafter performed at 0°-4° C. as follows:
The incubation is terminated after 15 min with a 5 ml wash of ice-cold […] Tris buffer (2-amino-2-hydroxymethyl-1,3-propanediol) at pH 7.4, and immediately filtered through Whatman GF/B filters in a filtering device, e.g., a Millepore filtering bank (Model 1225, Millipore Corp., Bedford, Mass.) The filters are immediately washed with an additional 5 ml of ice-cold buffer. The filters are airdried and suspended in a scintillation fluor, e.g., in 10 ml "Aquasol" (New England Nuclear, Boston, Mass.) and the radiation measured in a liquid scintillation counter, e.g., a Beckman LS-355 liquid scintillation counter.
Standard curves were constructed by adding known amounts of benzodiazepine to plasma, diluting the plasma (1:5 or 1:10) with water, and proceeding in an identical manner to unknown samples. […] The percent inhibition of specific binding by plasma samples is defined as: [formula] […] The slope and intercept of these lines were determined by least mean squares regression analysis and the benzodiazepine concentrations in unknown plasma samples computed from these values.
The synaptosomal membranes suspension described above is prepared as follows:
(a) homogenize rat brains in 20 volumes of ice-cold 0.32 M sucrose (using a Potter-Elvehjern homogenizer);
(b) centrifuge the resulting suspension obtained in step (a) at 1000×g for 10 minutes;
(c) centrifuge the supernatent obtained in step (b) at 20,000×g for 20 minutes; and
(d) resuspend the pellet obtained in step (c) in 40 volumes of Tris buffer to a final protein concentration of approximately 1 mg/ml.

| SMILES | plasma concentration that could be reliably measured by inhibition of [3H]diazepam binding | potency rank among the benzodiazepines tested in inhibiting [3H]diazepam binding | potency in inhibiting [3H]diazepam binding relative to the parent compound diazepam (from standard curves in figure) |
| --- | --- | --- | --- |
| O=C1CN=C(c2ccccc2Cl)c2cc([N+](=O)[O-])ccc2N1 [Clonazepam, clonazepam] | 10 ng/mL | most potent |  |
| O=C1CN=C(c2ccccc2)c2cc(Cl)ccc2N1 [N-demethyldiazepam] |  |  | about 85% |
| CCN(CC)CCN1C(=O)CN=C(c2ccccc2F)c2cc(Cl)ccc21 [flurazepam] | approximately 100 ng/ml | least potent |  |
